{"source": "ChEMBL document CHEMBL1201862", "about": "“PubChem BioAssay data set” (2004)", "key": {"INS1 [1]": {"system": "INS1", "assay": "beta-cell survival under cytokine stress – INS-1E, ATP luminescence, dry powder, dose response (AID 488844)", "format": "functional, cell-based", "conditions": "Rattus norvegicus"}, "INS1 [2]": {"system": "INS1", "assay": "suppression of NO production in INS-1E cells – cell-based, Griess absorbance, dry powder, set 2, dose response (AID 488868)", "format": "functional", "conditions": "Rattus norvegicus"}, "[3]": {"assay": "THP-1 cell cytotoxicity, dose response, cytotoxicity control, set 3 (AID 504852)", "format": "functional", "conditions": "Mycobacterium tuberculosis"}, "[4]": {"assay": "THP-1 cell cytotoxicity, cytotoxicity control, set 4 (AID 504911)", "format": "functional", "conditions": "Mycobacterium tuberculosis"}, "[5]": {"target": "Phosphorylase b kinase gamma catalytic chain, liver/testis isoform (Homo sapiens, UniProt P15735)", "sequence (P15735 whole entry, canonical isoform)": "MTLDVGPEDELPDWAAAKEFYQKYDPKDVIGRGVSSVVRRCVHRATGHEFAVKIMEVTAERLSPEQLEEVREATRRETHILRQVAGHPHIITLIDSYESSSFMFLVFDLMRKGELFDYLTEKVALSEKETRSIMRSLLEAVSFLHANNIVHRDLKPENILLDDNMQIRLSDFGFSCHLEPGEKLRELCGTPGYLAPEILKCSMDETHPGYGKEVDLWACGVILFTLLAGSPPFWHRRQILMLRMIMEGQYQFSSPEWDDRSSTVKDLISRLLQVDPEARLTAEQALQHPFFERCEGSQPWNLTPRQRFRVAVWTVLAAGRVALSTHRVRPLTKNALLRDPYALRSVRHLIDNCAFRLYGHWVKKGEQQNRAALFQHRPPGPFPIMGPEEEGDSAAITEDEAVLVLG", "format": "functional"}, "[6]": {"target": "T1, Endoribonuclease toxin MazF (Escherichia coli K-12, UniProt P0AE70)", "T1 sequence (P0AE70 whole entry)": "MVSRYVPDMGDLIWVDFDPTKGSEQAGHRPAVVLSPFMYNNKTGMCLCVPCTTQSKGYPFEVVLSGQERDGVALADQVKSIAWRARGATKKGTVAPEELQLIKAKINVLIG", "assay": "activation of MazEF endoribonuclease cleavage – biochemical, fluorescence, single-stranded RNA substrate, uHTS hits, dose response (AID 588481)", "format": "functional"}, "CHO": {"system": "CHO", "assay": "CHO cell viability loss, potency – luminescence, cytotoxicity control for TLR9-MyD88 binding inhibitor project, dose response (AID 588339);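 further: CHO cells stably coexpressing TLR9 and MyD88 fusions from primary screen; compound exposure lasted 48 hours before viability readout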", "format": "functional, cell-based, hamster", "conditions": "Cricetulus griseus"}, "[7]": {"target": "T1, Endoribonuclease toxin MazF", "assay": "substrate-only fluorescence increase artefacts – biochemical, single-stranded RNase substrate, counter-screen for MazEF activator project, dose response (AID 588502)", "format": "functional"}, "Beta Lactamase": {"target": "Beta Lactamase (Pseudomonas aeruginosa, UniProt Q932Y6)", "sequence (Q932Y6 whole entry)": "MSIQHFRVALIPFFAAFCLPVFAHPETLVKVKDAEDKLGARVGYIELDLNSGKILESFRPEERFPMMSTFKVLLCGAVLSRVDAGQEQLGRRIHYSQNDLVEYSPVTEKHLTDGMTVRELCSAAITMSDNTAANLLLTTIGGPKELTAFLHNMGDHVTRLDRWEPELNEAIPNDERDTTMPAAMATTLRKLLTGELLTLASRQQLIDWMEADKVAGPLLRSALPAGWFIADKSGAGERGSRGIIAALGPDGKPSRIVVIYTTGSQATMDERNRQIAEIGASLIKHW", "assay": "BLA reporter interference, concentration series – BLA reporter cells, FRET fluorescence, artefact control for TLR9-MyD88 binding inhibitor project, dose response (AID 588341)", "format": "cell-based"}, "BJ [8]": {"system": "BJ", "assay": "BJ-TERT fibroblast viability loss – cell-based, RAS-independent, luminescence, dose response (AID 1933)", "format": "functional", "conditions": "Homo sapiens"}, "BJ [9]": {"system": "BJ", "assay": "cells", "format": "functional, cell-based", "conditions": "Homo sapiens"}, "BJ [10]": {"system": "BJ", "assay": "BJ-TERT-LT-ST fibroblast viability loss – cell-based, RAS-independent, luminescence, dose response (AID 1935);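 further: BJ fibroblasts immortalized with TERT plus LT and ST oncogenes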", "format": "functional", "conditions": "Homo sapiens"}, "[11]": {"assay": "DRD fibroblast viability loss – cell-based, non-viral oncogenic, luminescence, dose response (AID 1934)", "format": "functional", "conditions": "Homo sapiens"}, "BJ [12]": {"system": "BJ", "assay": "growth inhibition of engineered Ras-driven BJ cells – cell-based, alamar blue fluorescence, cherrypicked samples, dose response (AID 2631)", "format": "functional", "conditions": "Homo sapiens"}}, "note": "The source made the active and inactive calls.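 Wherever Ki is given: PHKG2 measured as one member of a kinome-wide kinase panel.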"}
{"smiles": "C[C@@H]1CN([C@H](C)CO)C(=O)c2cccc(NC(=O)Nc3ccccc3)c2O[C@H]1CN(C)S(=O)(=O)c1ccc(Cl)cc1", "values": [{"measurement": "AC50", "setting": "INS1 [1]", "result": "22.4 µM (active)"}, {"measurement": "AC50", "setting": "INS1 [2]", "result": "41.6 µM (active)"}]}
{"smiles": "O=C(CSc1ccccn1)NC1CCCCC1", "values": [{"measurement": "CC50", "setting": "[3]", "result": "> 100 µM (active)"}, {"measurement": "CC50", "setting": "[4]", "result": "> 100 µM (active)"}]}
{"smiles": "NC(=O)c1cccc2[nH]c(-c3ccncc3)nc12", "values": [{"measurement": "Ki", "setting": "[5]", "result": "1 µM (active)"}]}
{"smiles": "Cn1cccc1/C=C1\\CCC/C(=C\\c2cccn2C)C1=O", "values": [{"measurement": "EC50", "setting": "[6]", "result": "> 99 µM (inactive)"}, {"measurement": "IC50", "setting": "CHO", "result": "> 49.8 µM (inactive)"}, {"measurement": "EC50", "setting": "[7]", "result": "23.9 µM (inactive)"}, {"measurement": "IC50", "setting": "Beta Lactamase", "result": "10.9 µM (inactive)"}]}
{"smiles": "Cc1nc(=O)c2cc(CN(C)c3ccc(C(=O)N[C@@H](CCC(=O)O)C(=O)O)s3)ccc2[nH]1", "note": "[RALTITREXED]", "values": [{"measurement": "EC50", "setting": "BJ [8]", "result": "> 150 µM (not active)"}, {"measurement": "EC50", "setting": "BJ [9]", "result": "0.192 µM (inconclusive)"}, {"measurement": "EC50", "setting": "BJ [10]", "result": "> 150 µM (inconclusive)"}, {"measurement": "EC50", "setting": "[11]", "result": "> 150 µM (inconclusive)"}, {"measurement": "EC50", "setting": "BJ [12]", "result": "> 133 µM (inactive)"}]}
